Measured values: paper PMC6222828, “Synthesis of Gemcitabine-Threonine Amide Prodrug Effective on Pancreatic Cancer Cells with Improved Pharmacokinetic Properties” (Molecules : A Journal of Synthetic Chemistry and Natural …, 2018)
“Also recorded” adds a separate entry of the source. Read-outs that look alike come from different tables or passages of the source. One block for each compound: values may come before it.

Assays:
BxPC-3 cells [1] = assay: MTT cytotoxicity assay in BxPC-3 cells; type: cell-based, Human; conditions: 48 h
Experimental: (§1) Figure 3 Growth-inhibitory effects of gemcitabine and of its amino-acid-conjugated derivatives on BxPC-3, MIAPaCa-2, A549, MDA-MB-231 B16 cells after exposure to 1 μM concentrations for 48 h, as estimated by MTT assay (mean ± SD, n = 3). Experiments were performed three times independently. * p < 0.05, compared with free gemcitabine group.
(§2) Human pancreatic cancer cells (MIAPaCa-2, BxPC-3 and AsPC-1), lung cancer cell lines (A549), human breast cancer cell lines (MDA-MB-231) and melanoma cell lines (B16) were purchased from the American Type Culture Collection (Manassas, VA, USA). MIAPaCa-2 and B16-F10 cells were cultured in Dulbecco’s modified Eagle’s medium (DMEM) supplemented with 10% heat-inactivated fetal bovine serum (FBS) and 1% penicillin/streptomycin. Aspc-1, BxPC-3 MDA-MB-231 and A549 cells were cultured in Roswell Park Memorial Institute 1640 (RPMI-1640) medium supplemented with 10% FBS and 1% penicillin/streptomycin. FBS and all other reagents used for cell culture were purchased from Invitrogen (Carlsbad, CA, USA). Cultures were maintained at 37 °C in 95% air /5% CO2 humidified atmosphere.
Cancer cell viabilities after treatment with gemcitabine or its derivatives were quantified using MTT assay as described previously. Briefly, cells were seeded onto 96-well plates at 3 × 10^3 cells per well and incubated at 37 °C. The cells were treated with each compound at indicated concentrations for 48 h and then, 20 μL of MTT labeling mixture was added to each well. After incubation for 4 h, optical densities (OD) were determined using a microplate reader by measuring absorbances at 540 nm.

MIAPaCa-2 cells = assay: MTT cytotoxicity assay in MIAPaCa-2 cells; type: cell-based, Human; conditions: 1 μM, 48 h
Experimental: as §1, §2
(§3) Cancer cell viabilities after treatment with gemcitabine or its derivatives were quantified using MTT assay as described previously. […] After incubation for 4 h, optical densities (OD) were determined using a microplate reader by measuring absorbances at 540 nm.

BxPC-3 cells [2] = assay: Apoptosis: cleaved PARP western blot and TUNEL assay; type: cell-based, Human; conditions: 1 µM, 24 h treatment
Experimental: BxPC-3 cells were washed with DPBS and lysed with RIPA buffer (Biosesang, Seongnam, Korea) containing 150 mM NaCl, 1% Triton X-100, 1% sodium deoxycholate, 0.1% SDS, 50 mM Tris-HCl (pH 7.5), 2 mM EDTA (pH 8.0), and Xpert protease inhibitor and phosphatase inhibitor Cocktail (GenDEPOT, Barker, TX, USA). Proteins were separated by 8% or 15% SDS-PAGE (sodium dodecylsulfate-polyacrylamide gel electrophoresis) and transferred to polyvinylidene fluoride (PVDF) membranes. […] Antibody binding was detected using an enhanced chemiluminescence (ECL) reagent (Bio-Rad, Hercules, CA, USA) using primary antibodies specific to proteins of interest, and proteins were detected using X-ray film and enhanced chemiluminescence reagent. Primary antibodies against the following were used: LAT-1, cleaved PARP (Cell Signaling Technologies, Beverly, MA, USA), GAPDH (Abcam, Cambridge, MA, USA), and β-actin (Sigma Aldrich, St. Louis, MO, USA). Secondary antibodies were purchased from Cell signaling technology.
TUNEL assay was conducted with the ApopTag® Peroxidase In Situ Apoptosis Detection Kit (Merck Millipore, Burlington, MA, USA). Briefly, BxPC-3 cells were seeded onto 18-mm cover glasses in medium and grown to ~70% confluence over 24 h.

[3] = 37 °C
Experimental: The metabolic stability of Gem-Thr was examined in the presence of PBS (pH 7.4), rat plasma, or liver microsomes as described previously (Maeng et al., 2014). Fresh rat plasma was obtained from sacrificed SD rats (260–280 g) after centrifuging blood (12,000× g, 15 min). Rat liver microsomes were obtained from BD Gentest. Gem-Thr (10 µM) was spiked into PBS, blank rat plasma, or liver microsomes (1 mg protein/mL) and incubated in a shaking water bath at 37 °C for 8 h. Aliquots (50-µL) were taken after 0, 15, 30, 60, 120, 240, […], or 480 min of incubation, immediately pretreated with ice-cold methanolic solution including the internal standard, vortexed for 3 min and centrifuged (12,000× g, 10 min). Supernatants were stored at −80 °C until required for analysis.

[4] = Systemic (intravenous) pharmacokinetics in rats; type: in vivo, rat; conditions: 4 mg/kg i.v.
Experimental: This study was performed in male Sprague-Dawley (SD) rats (Orient Bio, Sungnam, Korea), as described previously. Rats were provided water and food ad libitum and maintained under a 12:12-h light/dark cycle. On the experimental day, a femoral vein and contralateral artery were cannulated using an Intramedic™ polyethylene tube (PE-50; Becton Dickinson Diagnostics, Sparks, MD, USA) under Zoletil induced anesthesia (50 mg/kg intramuscularly; Virbac, Carros, France). For the intravenous pharmacokinetic study, Gem-Thr or gemcitabine solution were injected into a femoral vein at 4 mg/kg. Blood (~0.22 mL) was taken from the femoral artery at 0 (blank), 1, 5, 15, 30, 60, 120, 240, 480, 720, or 1440 min. To prevent blood loss, the same volume of normal saline was injected intravenously at each time point. Plasma was obtained immediately centrifugation and then stored at −80 °C prior to LC-MS/MS.
The pharmacokinetic parameters of Gem-Thr, gemcitabine, Gem-Thr plus gemcitabine, and free gemcitabine were calculated by non-compartmental analysis using WinNonlin (Version 3.1; Pharsight, Mountain View, CA, USA), as described previously (Park et al., 2016).
To determine concentrations of Gem-Thr and gemcitabine in rat plasma, plasma samples were deproteinized by adding two volumes of acetonitrile containing internal standard (phenacetin). After mixing, mixtures were centrifuged at 14,000× g for 10 min.
Aliquots of supernatants (2-µL) were injected into the LC-MS/MS system, which consisted of an Agilent HPLC and an Agilent 6490 QQQ mass spectrometer equipped with an ESI+ Agilent Jet Stream ion source (Agilent Technologies, Santa Clara, CA, USA). The separation of each drug and IS from endogenous plasma substances was achieved on a Synergi Polar-RP 80A column (150 × 2.0 mm, 4 μm; Phenomenex, Torrance, CA, USA). The mobile phase consisted of 0.1% formic acid and acetonitrile (20:80, v/v) at a flow rate of 0.2 mL/min. The column and autosampler tray were maintained at 25 and 4 °C, respectively. Gemcitabine, Gem-Thr, and the IS were quantified by multiple-reaction monitoring (MRM) in positive electrospray ionization mode. Respective precursor-to-product ion transitions were as follows: Gemcitabine, 264.1→112.1, Gem-Thr, 387.1→343.2, and IS (phenacetin), 180.2→162.2. Data acquisition was performed using Mass Hunter software (ver. A.02.00; Agilent Technologies).

[5] = tested on: MDA-MB-231 (breast cancer cells); assay: MTT cytotoxicity assay in MDA-MB-231 cells; type: cell-based, human; conditions: 1 μM, 48 h
Experimental: as §1, §2, §3

[6] = design: method as in PMID 18519786; conditions: in man; cited from earlier work
B16 (melanoma cells) = assay: MTT cytotoxicity assay in B16 cells; type: cell-based; conditions: 1 μM, 48 h
Experimental: Human pancreatic cancer cells (MIAPaCa-2, BxPC-3 and AsPC-1) [21], lung cancer cell lines (A549) [22], human breast cancer cell lines (MDA-MB-231) [23] and melanoma cell lines (B16) [24] were purchased from the American Type Culture Collection (Manassas, VA, USA). MIAPaCa-2 and B16-F10 cells were cultured in Dulbecco’s modified Eagle’s medium (DMEM) supplemented with 10% heat-inactivated fetal bovine serum (FBS) and 1% penicillin/streptomycin. Aspc-1, BxPC-3 MDA-MB-231 and A549 cells were cultured in Roswell Park Memorial Institute 1640 (RPMI-1640) medium supplemented with 10% FBS and 1% penicillin/streptomycin. […] Cultures were maintained at 37 °C in 95% air /5% CO2 humidified atmosphere.
Cancer cell viabilities after treatment with gemcitabine or its derivatives were quantified using MTT assay as described previously [25]. Briefly, cells were seeded onto 96-well plates at 3 × 10^3 cells per well and incubated at 37 °C. The cells were treated with each compound at indicated concentrations for 48 h and then, 20 μL of MTT labeling mixture was added to each well. After incubation for 4 h, optical densities (OD) were determined using a microplate reader by measuring absorbances at 540 nm.

A549 (lung cancer cells) = assay: MTT cytotoxicity assay in A549 cells; type: cell-based; conditions: 1 μM, 48 h
Experimental: as §1, §2, §3

[7] = design: method as in PMID 19860433; conditions: cited from earlier work
[8] = analyte = administered compound

SMILES: C[C@@H](O)[C@H](N)C(=O)Nc1ccn([C@@H]2O[C@H](CO)[C@@H](O)C2(F)F)c(=O)n1 [Gem-Thr, (2S,3R)-2-Amino-N-(1-((2R,4R,5R)-3,3-difluoro-4-hydroxy-5-(hydroxylmethyl)tetra-hydrofuran-2-yl)-2-oxo-1,2-dihydropyrimidin-4-yl)-3-hydroxybutanamide2-(4-((pyridin-3-ylmethyl)amino)quinazolin-2-yl)phenol]
anti-cancer effect (cytotoxicity) (BxPC-3 cells [1]; 1 μM): most potent anticancer effect; also recorded: more effective than free gemcitabine
cell viability (BxPC-3 cells [1]; 1 μM): 44.7%
anti-cancer effect (cytotoxicity) (MIAPaCa-2 cells): most potent anticancer effect; also recorded: more effective than free gemcitabine
apoptosis (cleaved PARP, TUNEL positive cells) (BxPC-3 cells [2]): induced apoptosis significantly
fraction of Gem-Thr metabolized in rat plasma ([3]; 10 µM, after 8 h): 20%
metabolic stability in rat plasma ([3]; 10 µM, up to 8 h): metabolically stable
stability in PBS ([3]; PBS pH 7.4, 10 µM, up to 8 h): metabolically stable
metabolic stability in rat liver microsomal fractions ([3]; rat liver microsomes 1 mg protein/mL, 10 µM, up to 8 h): metabolically stable
AUC of sum of Gem-Thr and gemcitabine (metabolite) versus gemcitabine alone [4]: 3.62 fold
AUC [4, 8]: 1713.85 ± 1082.40 µg·min/mL
CL [4, 8]: 2.85 ± 1.33 mL/min/kg
MRT [4, 8]: 3.953 ± 0.3478 h
Terminal t1/2 [4, 8]: 3.9363 ± 0.849 h
Vss [4, 8]: 0.66235 ± 0.2814 L/kg
increase of systemic exposure (AUC of gemcitabine) versus free gemcitabine ([4]; formed gemcitabine vs free gemcitabine): 1.83 fold

clearance ([4]; male, Sprague-Dawley, rat, plasma, iv, analyte = administered compound): 4.23 ± 0.23 mL/min/kg
AUC ([4]; male, Sprague-Dawley, rat, plasma, iv, analyte = administered compound, read-out: AUC (converted)): 948 µg·min/mL
MRT ([4]; male, Sprague-Dawley, rat, plasma, iv, analyte = administered compound, read-out: MRT (converted)): 9.7 h
half-life ([4]; male, Sprague-Dawley, rat, plasma, iv, analyte = administered compound, read-out: Terminal t1/2): 8.88 ± 2.96 h
Vd ([4]; male, Sprague-Dawley, rat, plasma, iv, analyte = administered compound, read-out: Vss): 2.48 ± 0.867 L/kg
SMILES: Nc1ccn([C@@H]2O[C@H](CO)[C@@H](O)C2(F)F)c(=O)n1 [gemcitabine, 2′-2′-difluorodeoxycytidine]
anti-cancer effect versus vehicle treated controls [5]: neither gemcitabine nor gemcitabine derivatives had any significant anti-cancer effect
anti-cancer effect (cytotoxicity) (BxPC-3 cells [1]; 1 μM): significant anti-cancer effects
viability at 1 µM (BxPC-3 cells [1]; Homo sapiens, read-out: cell viability): 54.1%
half-life [6]: 9 min
anti-cancer effect (cytotoxicity) (B16 (melanoma cells)): significant anti-cancer effects
anti-cancer effect versus vehicle treated controls (A549 (lung cancer cells)): neither gemcitabine nor gemcitabine derivatives had any significant anti-cancer effect
anti-cancer effect (cytotoxicity) (MIAPaCa-2 cells): significant anti-cancer effects
apoptosis (cleaved PARP, TUNEL positive cells) (BxPC-3 cells [2]): induced apoptosis significantly
oral bioavailability (BA) [7]: low oral bioavailability
